From US3957812A, “Derivatives of 2-phenoxyacetamido-5-nitro-thiazole” (priority 1973, dated 1976)
In brackets after ≈: the same amount, converted by molar mass. Read-outs that look alike come from different tables or passages of the source.

Assays:
[1] = test system: Shigella dysenteriae 3410; experiment: Determination of bacteriostatic doses, S. 3410; type: cell-based; settings: for MIC: Shigella dysenteriae, 3410, 24 h, read-out: bacteriostatic dose, S. 3410
Description: (§1) (5) Method for determining bacteriostatic doses
(§2) A common gelose medium of the following composition is used.
(§3) The pH is adjusted at 7.2 and the medium is sterilized during 30 minutes at 120°C.
(§4) The same method as for the determination of fungistatic doses is used, except that the various dilutions of each compound are added to the gelose medium, the solvent concentration never exceeding 3%. Tubes containing […] of the compounds per ml are prepared.
(§5) Cultures of each strain in the liquid medium are prepared and, after 24 hours of incubation at 37°C, dilutions of these cultures in ordinary broth are prepared as follows:
Shigella dysenteriae 3410
(§6) By means of these dilutions, scratches of a length of 4 to 5 cm are made on the previously dried surface of the gelose medium to which various amounts of the compound to be tested have been added.

[2] = test system: Pseudomonas aeruginosa 8194; experiment: Determination of bacteriostatic doses, Pseudo 8194; type: cell-based; settings: gelose medium, 37°C, 24 hours
Description: as §1, §2, §3, §4, §5
Pseudomonas aeruginosa 8194
as §6

Microsporum felineum = experiment: Determination of fungistatic doses, M.f.; type: cell-based; settings: liquid Sabouraud medium, 25°C, 10 days
Description: (§7) (4) Method for determining fungistatic doses:
(§8) A liquide Sabouraud medium having the following composition is used:
(§9) If necessary, the pH is adjusted at 6.4 and the medium is sterilized.
(§10) The compounds are dissolved in dimethylformamide to which polyethylene glycol is sometimes added. From the mother-liquor, successive diluted solutions are prepared in the liquid Sabouraud medium, so as to obtain concentrations of 1, 3, 10, 30 100 and […] per ml. For the first dilution, one should not add more than 10% of the mother-liquor to the Sabouraud medium. Subsequently 9 ml per tube of the various solutions in the liquid Sabouraud medium are distributed.
(§11) Reference tubes corresponding to the highest solvent concentrations are also prepared.
(§12) Cultures of the various dermatophyte strains on Sabouraud gelose medium are prepared. From 1 to 2 months old cultures, homogeneous suspensions of said cultures in the liquid Sabouraud medium are prepared, the obtained suspensions being stirred in the presence of glass pearls having a light transmission of about 40%.
(§13) One drop of said suspension is introduced in the tubes containing the various concentrations of the compound to be tested.
(§14) at 25°C ± 2°C in the dark
(§15) 10 days of incubation for dermatophytes.

[3] = test system: Trichophyton mentagrophytes; experiment: Determination of fungistatic doses, T.m.; type: cell-based; settings: liquid Sabouraud medium, 25°C, 10 days; for MIC: Trichophyton mentagrophytes, 240 h, read-out: fungistatic dose, T.m
Description: as §7, §8, §9, §10, §11, §12, §13, §14, §15

Enterococcus 9790 = experiment: Determination of bacteriostatic doses, E. 9790; type: cell-based; settings: gelose medium, 37°C, 24 hours; for MIC: Enterococcus, 9790, read-out: bacteriostatic dose, E. 9790
Description: as §1, §2, §3, §4, §5, §6

Syphacia obvelata = type: in vivo; design: Percentage of activity: concentration or dose not given beside the values; settings: for Number of dead subjects (+): in vivo
Description: (§16) Biological tests have been performed with a great number of compounds of formula (I) using the following techniques: (1) Test for amoebicidal activity described by R. CAVIER, Ann. pharm. franc., 1960, 18, pages 583-589 and by R. CAVIER, and J. CENAC, Bull. Soc. Path. exot. 1972, 65, pages 399-404. (2) Test for trichomonacidal activity described by R. CAVIER and P. BUOT, Ann. pharm. franc., 1964, 22, pages 211-216 and by R. CAVIER and J. CENAC, Semaine des Hopitaux, 1972, 48, pages 391-394). (3) Tests for anthelminthics described for nematodes (such as Syphacia obvelata) by R. CAVIER, Bull. Soc. Path. exot., 1962, 55, pages 412-417 and, for cestodes (such as Hymenolepis nana), by R. CAVIER, Ann. pharm. franc., 1956, 14, pages 545-552 and by R. CAVIER and M. J. NOTTEGHEM, Ann. pharm. franc. 1968, 28, pages 603-606.

[4] = test system: Escherichia coli OIII B 4; experiment: Determination of bacteriostatic doses, O.III B 4; type: cell-based; settings: gelose medium, 37°C, 24 hours
Description: as §1, §2, §3, §4, §5
Escherichia coli OIII B 4
as §6

Epidermo flocosum = experiment: Determination of fungistatic doses, E.f.; type: cell-based; settings: liquid Sabouraud medium, 25°C, 10 days; for MIC: 240 h, read-out: fungistatic dose, E.f.
Description: as §7, §8, §9, §10, §11, §12, §13, §14, §15

[5] = test system: Staphylococcus aureus 209 P; experiment: Determination of bacteriostatic doses, S. 209 P; type: cell-based; settings: gelose medium, 37°C, 24 hours; for MIC: Staphylococcus aureus, 209P, read-out: bacteriostatic dose, S. 209 P
Description: as §1, §2, §3, §4, §5
Staphylococcus aureus 209 P
as §6

Hymenolepis nana = experiment: Test for anthelminthics, cestodes (Hymenolepis nana); type: in vivo; design: Percentage of activity: concentration or dose not given beside the values; settings: number of subjects 10
Description: as §16

Entomoeba dysenteriae = experiment: Test for amoebicidal activity; type: cell-based
Description: as §16

[6] = test system: Proteus morganii IP 53185; experiment: Determination of bacteriostatic doses, P. morg.; type: cell-based; settings: gelose medium, 37°C, 24 hours
Description: as §1, §2, §3, §4, §5
Proteus morganii IP 53185
as §6

in vivo [7] = settings: mouse, po, orally administered to mice
Description: The LD50 of compounds PH 6099 and 5927, when orally administered to mice, is of more than 4000 mg/kg.

in vivo [8] = settings: mouse, ip, intraperitoneal administration to mice, read-out: acute toxicity (LD50)
Trichomonas vaginalis = experiment: Test for trichomonacidal activity; type: cell-based; settings: for minimal effective concentration: Trichomonas vaginalis, read-out: Trichomonas vaginalis starting activity
Description: as §16

bacteria = experiment: Activity against bacteria; type: cell-based; settings: in words
Description: as §1, §2, §3, §4, §5, §6

fungi = experiment: Activity against fungi; type: cell-based; settings: in words
Description: as §7, §8, §9, §10, §11, §12, §13, §14, §15

Microsporum audouini = experiment: Determination of fungistatic doses, M.a.; type: cell-based; settings: 240 h, liquid Sabouraud medium, 25°C, 10 days, read-out: fungistatic dose, M.a.
Description: as §7, §8, §9, §10, §11, §12, §13, §14, §15

Trichophyton rubrum = experiment: Determination of fungistatic doses, T.r.; type: cell-based; settings: 240 h, liquid Sabouraud medium, 25°C, 10 days, read-out: fungistatic dose, T.r.
Description: as §7, §8, §9, §10, §11, §12, §13, §14, §15

Proteus vulgaris 8181 = experiment: Determination of bacteriostatic doses, 8181; type: cell-based; settings: gelose medium, 37°C, 24 hours, strain 8181, read-out: bacteriostatic dose, (8181) printed in column P. morg.
Description: as §1, §2, §3, §4, §5, §6

[9] = Syphacia obvelata, number of subjects 10

Row | Molecule | Percentage of activity (Syphacia obvelata; [9]) [%] | Number of dead subjects (+) (Syphacia obvelata) | Number of dead subjects (+) (Hymenolepis nana) | Number of subjects from which the parasite has been eradicated (D) (Hymenolepis nana) | Percentage of activity (Hymenolepis nana) [%] | MIC [3] [µg/mL] | MIC (Epidermo flocosum) [µg/mL] | MIC [5] [µg/mL] | further results
1 | 2-(2'-trifluoromethyl-3'-methylphenoxyacetamido)-5-nitrothiazole [PH 6306] | 0 | 0 | 0 | 0 | 0 |  |  |  | bacteriostatic dose, S. 3410 ([1]; gelose medium, 37°C, 24 hours): 0 µg/mL; bacteriostatic dose, Pseudo 8194 [2]: 0 µg/mL; fungistatic dose, M.f. (Microsporum felineum): 10 µg/mL; fungistatic dose, T.m [3]: 1 µg/mL; bacteriostatic dose, E. 9790 (Enterococcus 9790): 100 µg/mL; Number of subjects from which the parasite has been eradicated (D) (Syphacia obvelata; [9]): 0; bacteriostatic dose, O.III B 4 [4]: 0 µg/mL; fungistatic dose, E.f. (Epidermo flocosum): 30 µg/mL; bacteriostatic dose, S. 209 P [5]: 10 µg/mL; Entomoeba dysenteriae starting activity (Entomoeba dysenteriae): 5 mμ/ml; bacteriostatic dose, P. morg. [6]: 0 µg/mL
2 | O=C(COc1ccc(Cl)cc1)Nc1ncc([N+](=O)[O-])s1 [PH 5927] | 30 | 0 | 0 | 0 | 0 | 30 (≈ 95.6 µM) | 10 (≈ 31.9 µM) | 100 (≈ 319 µM) | LD50 (in vivo [7]): > 4000 mg/kg; LD50 (in vivo [8]): > 4500 mg/kg
3 | O=C(COc1ccccc1)Nc1ncc([N+](=O)[O-])s1 [2-phenoxyacetamido-5-nitro-thiazole] |  |  |  |  |  |  |  |  | activity against Trichomonas vaginalis (Trichomonas vaginalis; in words): no activity; activity against bacteria (bacteria): no activity; activity against fungi (fungi): no activity; activity against Entomoeba dysenteriae (Entomoeba dysenteriae; in words): no activity
4 | O=C(COc1ccc(F)cc1)Nc1ncc([N+](=O)[O-])s1 [PH 6160] | 0 | 0 | 0 | 0 | 0 | 4 (≈ 13.5 µM) | 1 (≈ 3.36 µM) | 10 (≈ 33.6 µM) | MIC (Microsporum audouini): 4 µg/mL (≈ 13.5 µM); MIC [1]: 100 µg/mL (≈ 336 µM); MIC (Trichophyton rubrum): 4 µg/mL (≈ 13.5 µM)
5 | O=C(COc1ccc(Br)cc1)Nc1ncc([N+](=O)[O-])s1 [PH 6092] | 10 | 0 | 0 | 1 | 10 | 100 (≈ 279 µM) |  | 10 (≈ 27.9 µM) | minimal effective concentration (Trichomonas vaginalis): 100 µg/mL
6 | Cc1cc(OCC(=O)Nc2ncc([N+](=O)[O-])s2)c(C(C)C)cc1Cl [PH 6099] | 20 | 0 | 0 | 4 | 40 |  |  | 3 (≈ 8.11 µM) | MIC (Microsporum audouini): 0.1 µg/mL (≈ 0.27 µM); MIC [1]: 300 µg/mL (≈ 811 µM); minimal effective concentration (Trichomonas vaginalis): 100 µg/mL; MIC (Enterococcus 9790): 300 µg/mL (≈ 811 µM); LD50 (in vivo [7]): > 4000 mg/kg; LD50 (in vivo [8]): ~200 mg/kg; MIC (Trichophyton rubrum): 2 µg/mL (≈ 5.41 µM)
7 | O=C(COc1c(F)c(F)c(F)c(F)c1F)Nc1ncc([N+](=O)[O-])s1 [PH 6168] | 0 | 0 | 0 | 2 | 20 | 1 (≈ 2.71 µM) | 1 (≈ 2.71 µM) | 10 (≈ 27.1 µM) | MIC (Microsporum audouini): 3 µg/mL (≈ 8.13 µM); MIC [1]: 300 µg/mL (≈ 813 µM); MIC (Enterococcus 9790): 10 µg/mL (≈ 27.1 µM); MIC ([4]; Escherichia coli, OIIIB4, read-out: bacteriostatic dose, O.III B 4): 300 µg/mL (≈ 813 µM); MIC (Proteus vulgaris 8181): 300 µg/mL (≈ 813 µM)
8 | Cc1cc(Cl)c(OCC(=O)Nc2ncc([N+](=O)[O-])s2)cc1C [PH 6305] | 10 | 0 | 0 | 0 | 0 |  |  |  | 
9 | O=C(COc1cc(Cl)ccc1Cl)Nc1ncc([N+](=O)[O-])s1 [PH 6159] | 0 | 0 | 0 | 2 | 20 | 30 (≈ 86.2 µM) |  |  | 
10 | Cc1cc(OCC(=O)Nc2ncc([N+](=O)[O-])s2)ccc1Cl [PH 6314] | 0 | 0 | 0 | 0 | 0 |  |  | 3 (≈ 9.15 µM) | minimal effective concentration (Trichomonas vaginalis): 2.5 µg/mL
11 | O=C(COc1cc(C(F)(F)F)cc(C(F)(F)F)c1)Nc1ncc([N+](=O)[O-])s1 [PH 6167] | 40 | 0 | 0 | 7 | 70 | 1 (≈ 2.41 µM) | 1 (≈ 2.41 µM) | 3 (≈ 7.22 µM) | MIC (Enterococcus 9790): 10 µg/mL (≈ 24.1 µM)
12 | O=C(COc1ccc(Cl)cc1Cl)Nc1ncc([N+](=O)[O-])s1 [PH 6091] | 20 | 0 | 0 | 3 | 30 | 3 (≈ 8.62 µM) | 1 (≈ 2.87 µM) | 3 (≈ 8.62 µM) | MIC (Microsporum felineum; Microsporum, 240 h, read-out: fungistatic dose, M.f.): 30 µg/mL (≈ 86.2 µM)
